In publication PMC12132917, “Carborane‐Based Analogs of Celecoxib and Flurbiprofen, their COX Inhibition Potential, and COX Selectivity Index” (Chemmedchem, 2025):
Where two headings read alike, the source gives them in different places. Marks after values point to notes of the source that are not given here.

Experiments:
[1] = Stability in DMSO/water (1:1, v/v) by HPLC-UV-MS or analytical HPLC; type: physicochemical; details: DMSO/H2O (1:1, v/v), RP-HPLC
Procedure: The stability of compounds 6, 7, 9, 10, 13a,b, and 14a,b in aqueous solution was studied by HPLC‐UV‐MS or analytical HPLC measurements as well (see Supporting Information for details, “4 HPLC Stability Determination of Compounds 6, 7, 9, 10, 13a, 13b, 14a, 14b”). All compounds except 13a were stable for at least one day (Supporting Information, section 4 ).
The stability was evaluated for all compounds in a mixture of DMSO, dried over molecular sieve, and LC‐MS grade water (1:1, v/v) with the same HPLC‐UV‐MS systems as described under “Purity Determination”. The column, eluent system, flow and MS tool were operated in the same way. For the stability determination, a few milligrams of each compound were dissolved in 1 mL DMSO. To dissolve the compounds, they were vortexed and heated up if necessary. The stock solution was further diluted with water. For that, 50–100 μL of the stock solution was transferred into a vial and the same amount of LC‐MS grade water was added. The two solvents were mixed thoroughly, and the measurement with HPLC‐UV‐MS was directly started. Additionally, measurements were performed in a varying time frame, from 15 or 20 min to 1 day. Usually, the injection volume was 10 μL, and before the measurement of the samples, a blank run with only DMSO/LC‐MS grade water (1:1, v/v) was performed. […] For the latter compounds, the aforementioned system (Agilent 1200 system) and the following gradient was used: 0–3 min 45% eluent B, 3–28 min 45%–95% eluent B, 28–34 min 95% eluent B, 34–35 min 95%–45% eluent B, then 35–40 min 45% eluent B, flow: 0.75 mL min^−1.
4 Stability Determination of Compounds 6, 7, 9, 10, 13a, 13b, 14a, 14b by HPLC A few milligrams of each compound have been dissolved in 1 mL DMSO, which was stored over molecular sieve.
50-100 µL of the DMSO solution have been transferred into a separate vial together with the same amount of LC-MS grade water. The mixture was measured directly after water addition and in time intervals from 20 min to 1 d by HPLC-UV-MS or analytical HPLC measurements. All compounds were stable for at least one day except for […]
rather for its nido-carborane analog, which was anyway the most prominent side product, no further stability measurements have been performed.
Figure S74. RP-HPLC chromatograms of blank (DMSO/H2O, black and green) and compound 6, retention time: 10.5 min, purity after 1 d: >98%.
Figure S75. RP-HPLC chromatograms of blank (DMSO/H2O, blue and pink) and compound 7, retention time: 8.3 min, purity after 1 d: >96%. […]

[2] = target: T1, ovine COX‐1 (Ovis aries, UniProt P05979); test: COX Fluorescent Inhibitor Screening Assay Kit (Cayman), COX-1 inhibition; type: biochemical; details: for IC50: read-out: IC50 [μM] (95% CI) COX‐1, absolute IC50
T1 construct: purchased Cayman Chemical Company
T1 sequence (P05979 25-600): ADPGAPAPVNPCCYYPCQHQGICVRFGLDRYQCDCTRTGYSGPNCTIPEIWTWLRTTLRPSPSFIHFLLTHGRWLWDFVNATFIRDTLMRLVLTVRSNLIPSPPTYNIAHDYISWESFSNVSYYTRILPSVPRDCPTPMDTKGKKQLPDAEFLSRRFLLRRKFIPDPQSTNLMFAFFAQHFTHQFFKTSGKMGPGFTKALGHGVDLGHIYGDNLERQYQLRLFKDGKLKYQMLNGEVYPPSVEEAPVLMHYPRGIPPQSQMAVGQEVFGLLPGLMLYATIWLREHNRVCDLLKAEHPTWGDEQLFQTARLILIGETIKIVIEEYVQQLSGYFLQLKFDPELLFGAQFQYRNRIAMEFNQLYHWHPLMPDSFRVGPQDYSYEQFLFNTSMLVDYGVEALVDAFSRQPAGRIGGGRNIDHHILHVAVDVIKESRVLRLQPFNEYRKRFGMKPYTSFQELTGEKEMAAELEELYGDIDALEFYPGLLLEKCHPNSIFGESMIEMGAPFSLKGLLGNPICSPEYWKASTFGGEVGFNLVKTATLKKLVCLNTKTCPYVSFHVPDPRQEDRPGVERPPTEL
From the text: (§1) For the cyclooxygenase assays, the fluorescence‐based COX assay “COX Fluorescent Inhibitor Screening Assay Kit” (Cayman Chemical Company, Ann Arbor, MI, USA) was used according to the manufacturer's instructions. […] All concentrations have been tested at least in duplicate.

[3] = target: T2, recombinant human COX‐2 (Homo sapiens, UniProt P35354); type: biochemical; details: for IC50: read-out: IC50 [μM] (95% CI) COX‐2
T2 construct: purchased Cayman Chemical Company
T2 sequence (P35354 18-604): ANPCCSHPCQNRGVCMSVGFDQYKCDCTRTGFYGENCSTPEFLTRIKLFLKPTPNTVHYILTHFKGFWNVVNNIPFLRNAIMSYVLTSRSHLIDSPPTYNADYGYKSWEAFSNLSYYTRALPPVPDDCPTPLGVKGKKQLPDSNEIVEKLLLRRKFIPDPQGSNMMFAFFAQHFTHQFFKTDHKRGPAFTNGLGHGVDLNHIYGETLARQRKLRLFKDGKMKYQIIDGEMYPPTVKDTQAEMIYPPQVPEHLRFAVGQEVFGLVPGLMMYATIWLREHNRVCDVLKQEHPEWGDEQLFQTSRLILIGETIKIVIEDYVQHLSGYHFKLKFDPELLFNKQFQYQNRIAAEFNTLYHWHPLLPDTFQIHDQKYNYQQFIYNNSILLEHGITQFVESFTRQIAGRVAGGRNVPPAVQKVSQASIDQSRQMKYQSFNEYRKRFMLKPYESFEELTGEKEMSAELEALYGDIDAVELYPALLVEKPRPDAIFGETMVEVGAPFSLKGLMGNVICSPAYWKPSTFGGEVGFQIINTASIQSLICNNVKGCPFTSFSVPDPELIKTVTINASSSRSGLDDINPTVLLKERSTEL
From the text: as §1

[4] = 100 μM, n = 2, n.i. = no inhibition (%‐inhibition < 5 %)
[5] = Inhibition at 98 μM instead of 100 μM, n = 2

Substance: Cesium N‐[3‐(7,8‐nido‐dicarbadodecahydroundecaborate(−1))propyl]‐4‐[5‐(p‐tolyl)‐3‐(trifluoromethyl)‐1H‐pyrazol‐1‐yl]benzenesulfonamide [Compound 7]
- purity after 1 d [1]: > 96%
- %‐inhibition at 100 [μM] (n = 2) COX‐1 ([2]; n = 2): 94%
- IC50 [2]: 11.2 µM
- %‐inhibition at 100 [μM] (n = 2) COX‐2 [3, 4]: 100%
- IC50 ([3]; absolute IC50): 8.75 µM
- SI = IC50(COX‐1)/IC50(COX‐2) ([3]; selectivity index): 1.28

Substance: Cesium (R/S)‐2‐[2‐fluoro‐(1,1'‐biphenyl)‐4‐yl]‐N‐(7,8‐nido‐dicarbadodecahydroundecaborate(−1))‐ethylpropanamide [Compound 14b]
- %‐inhibition at 100 [μM] (n = 2) COX‐1 ([2]; n = 2): 72%
- SI = IC50(COX‐1)/IC50(COX‐2) [3]: 2.7
- %‐inhibition at 100 [μM] (n = 2) COX‐2 ([3]; 100 µM): 80%

Substance: Cesium (R/S)‐2‐[2‐fluoro‐(1,1′‐biphenyl)‐4‐yl]‐N‐(7,8‐nido‐dicarbadodecahydroundecaborate(−1))‐methylpropanamide [Compound 14a]
- %‐inhibition at 100 [μM] (n = 2) COX‐1 ([2]; n = 2): 94%
- SI = IC50(COX‐1)/IC50(COX‐2) [3]: 1.9
- %‐inhibition at 100 [μM] (n = 2) COX‐2 ([3]; 100 µM): 91%

Substance: Di‐cesium N,N‐bis[3‐(7,8‐nido‐dicarbadodecahydroundecaborate(−1))propyl]‐4‐[5‐(p‐tolyl)‐3‐(trifluoromethyl)‐1H‐pyrazol‐1‐yl]benzenesulfonamide [Compound 10]
- purity after 1 d [1]: > 99%
- %‐inhibition at 100 [μM] (n = 2) COX‐1 ([2]; n = 2): 103%
- IC50 [2]: 3.49 µM
- %‐inhibition at 100 [μM] (n = 2) COX‐2 [3, 4]: 103%
- IC50 [μM] (95% CI) COX‐2 ([3]; absolute IC50): sub‐μM range
- IC50 ([3]; absolute IC50): 0.34 µM
- SI = IC50(COX‐1)/IC50(COX‐2) ([3]; selectivity index): 10.3

Substance: N‐[3‐(1,2‐closo‐dicarbadodecaborane)propyl]‐4‐[5‐(p‐tolyl)‐3‐(trifluoromethyl)‐1H‐pyrazol‐1‐yl]benzenesulfonamide [Compound 6]
- purity after 1 d [1]: > 98%
- %‐inhibition at 100 [μM] (n = 2) COX‐1 ([2]; n = 2): ≤ 55%
- %‐inhibition (n = 2) COX‐1 [2, 5]: 9 ^b) %
- %‐inhibition at 100 [μM] (n = 2) COX‐2 [3, 4]: ≤ 55%
- %‐inhibition (n = 2) COX‐2 [3, 5]: 54 ^b) %
- IC50 ([3]; absolute IC50): 120 µM

Substance: N,N‐Bis[3‐(1,2‐closo‐dicarbadodecaborane)propyl]‐4‐[5‐(p‐tolyl)‐3‐(trifluoromethyl)‐1H‐pyrazol‐1‐yl]benzenesulfonamide [Compound 9]
- purity after 1 d [1]: > 99%
- IC50 [2]: > 320 µM
